Assay in all cases: NCI anticancer screen, dose series, 48 h
For experiment [1], the system named is 786-0 renal.
Experiment [2] deals with M14 melanoma.
For experiment [3], the system named is NCI-H460 lung.
Experiment [4] concerns K-562 leukemia.
The subject of experiment [5] is OVCAR-3 ovarian.
Experiment [6] relates to KM12 colon.
Experiment [7] relates to RPMI-8226 leukemia.
Experiment [8] has as its system MCF7 breast.
Experiment [9] relates to MDA-N.
Experiment [10] has as its system NCI-H23 lung.
For experiment [11], the system named is T-47D breast.

SMILES strings stand for the structures.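 Step 1: Grow cells in 96-well plates. Step 2: Expose to compound for 48 hours at 5 concentrations. Step 3: Interpolate endpoints linearly; if unreached, use highest concentration. GI50 marks 50% less growth. TGI denotes the concentration required for complete inhibition of growth.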

Regarding `CN(C)C(=S)Nc1nnc(NC23CC4CC(CC(C4)C2)C3)s1`, the TGI is 38.2 µM in [1]; 29.7 µM in experiment [2]; 26.8 µM in experiment [3]; more than 100 µM in experiment [4]; 46.3 µM in [5]; 46 µM in experiment [6]. Besides, the TGI in experiment [7] was determined as 51.1 µM.
For `C/C(Cl)=N\OC(=O)Nc1ccc([N+](=O)[O-])cc1`, the TGI in experiment [8] turned out to be 5.73 µM; in [9] it was 25.1 µM; in [1] it was 18.4 µM; in [2], 26.1 µM; in experiment [3], 38.8 µM; in experiment [10] it was 49.9 µM. Moreover, the TGI in experiment [11] came out at 36.8 µM; in experiment [4] it was 4.22 µM; in [5], 6.1 µM; in experiment [6] it was 36.2 µM.
Consider `Nn1c(CNc2ccc(-c3nnc(Nc4ccc(Cl)cc4)n3N)cc2)nnc1Nc1ccc(Cl)cc1`, for which the TGI in [8], in [9], in experiment [1], in experiment [2], in experiment [3] and in [10] was more than 100 µM each time. The TGI in experiment [4], in [6] and in experiment [7] was more than 100 µM in each case.
Consider `COC1/C=C\C=C(/C)C(=O)NC2=CC(=O)C=C(C2=O)C(OC)C(C)CC(OC)C(OC)C(C)/C=C(/C)C1OC(N)=O` (configuration not stated), for which the TGI was found to be 8.37 µM in experiment [8]; 27.2 µM in experiment [3]; 16 µM in experiment [10]; 1.44 µM in [4]; 7.23 µM in experiment [5]; 20.1 µM in [6]. For the same molecule, the TGI in [7] was 12.1 µM.
Take `NNC(N)=Nc1cccc2ccccc12`: the TGI in experiment [8], in [1], in experiment [2], in experiment [3], in experiment [10] and in experiment [11] was more than 100 µM in each case. In addition, the TGI in experiment [4], in [6] and in [7] was more than 100 µM throughout.
Take `C=CCn1c2ccccc2c2c(C)c3cnccc3c(C)c21`: the TGI in [8] came out at 62.6 µM; in experiment [3], 37.8 µM; in experiment [10], 45.3 µM; in experiment [4], 52.2 µM; in [5], 48.6 µM; in experiment [6], 83.9 µM. This molecule also showed a TGI in experiment [7] of 29.5 µM.
In the case of `O=C(O)CC(NC(=O)C(F)(F)F)C(=O)NC1Cc2ccccc2OC1=O` (configuration not stated), the TGI in experiment [8], in [9], in experiment [1], in [2], in experiment [3] and in [10] was more than 100 µM throughout. For the same molecule, the TGI in experiment [4], in experiment [5], in [6] and in [7] was more than 100 µM in each case.
Regarding `O=C1/C(=C/c2ccc(O)cc2)NC(=S)N1CN1CCCCC1`, the TGI in [8], in [9], in [1], in [2], in experiment [10] and in experiment [4] was more than 100 µM in each case. Moreover, the TGI in experiment [5], in [6] and in experiment [7] was more than 100 µM each time.
Consider `ON=C1CCCCC(=NO)CCCC1`, for which the TGI in experiment [8], in experiment [9], in experiment [1], in experiment [3], in experiment [10] and in experiment [11] was more than 100 µM throughout. For the same molecule, the TGI in experiment [4], in experiment [6] and in [7] was more than 100 µM throughout.
With `CC1=NN(c2nc(N)nc(CS(C)(=O)=O)n2)C(C)(C)C1`, the TGI in experiment [8], in experiment [1], in experiment [2], in experiment [3], in experiment [10] and in [11] was more than 100 µM in each case. In addition, the TGI in [4], in experiment [6] and in experiment [7] was more than 100 µM throughout.
Consider `C=C1C(=O)OC2/C=C(\C)CC/C=C(/C)CC(OC(=O)/C(=C/CO)CO)C12` (configuration not stated), for which the TGI in experiment [8] is 48.7 µM; in [9], 47.2 µM; in [1], 88.8 µM; in [2] it was 39 µM; in experiment [3], more than 100 µM; in experiment [10], 39.1 µM. Further, the TGI is more than 100 µM in experiment [4], more than 100 µM in experiment [5], more than 100 µM in experiment [6] and 72.7 µM in [7].
Consider `O=C(ON=c1c2ccccc2ccc2ccccc12)c1cc([N+](=O)[O-])cc([N+](=O)[O-])c1`, for which the TGI in experiment [8], in experiment [9], in experiment [1], in [2], in experiment [3] and in experiment [10] was more than 100 µM throughout. Moreover, the TGI in experiment [4], in [5], in [6] and in [7] was more than 100 µM throughout.
Turning to `O=C(Nc1ccc(Cl)cc1)c1cc(S(=O)(=O)Nc2n[nH]c(=O)[nH]2)c(SSc2cc(Cl)c(C(=O)Nc3ccc(Cl)cc3)cc2S(=O)(=O)Nc2n[nH]c(=O)[nH]2)cc1Cl`, the TGI in experiment [8], in [9], in experiment [1], in experiment [2], in experiment [3] and in [10] was more than 100 µM throughout. For the same molecule, the TGI in [4], in [5], in experiment [6] and in [7] was more than 100 µM in each case.
As for `Cc1ccc2nc3c(C(=O)NCCN(C)C)cccc3cc2c1`, the TGI in experiment [8] came to 11.6 µM; in [3] it was 2.36 µM; in [10] it was 4.21 µM; in experiment [4] it was 7.83 µM; in experiment [5], 5.83 µM; in experiment [6] it was 12.6 µM. Besides, the TGI in [7] came to 7.12 µM.
As to `N#CC12COC3(CCCCC3C1(C#N)C#N)OC2=N` (configuration not stated), the TGI is 29.5 µM in experiment [8]; 25.5 µM in experiment [9]; more than 100 µM in experiment [1]; 22.4 µM in [2]; 29.4 µM in experiment [3]; 37.2 µM in experiment [10]. Besides, the TGI is 26.7 µM in experiment [11], more than 100 µM in experiment [4] and 23.1 µM in experiment [5].
As for `O=C(NC(=O)c1cn(CCN2CCNCC2)c(=O)[nH]c1=O)OCc1ccccc1`, the TGI in experiment [2], in experiment [3], in experiment [10], in experiment [4], in experiment [5] and in experiment [6] was more than 100 µM in each case. This molecule yielded a TGI in [7] of more than 100 µM.
With `COc1ccc2c(c1)/C(=C(\C(Cl)=C(\Cl)N1CCCCC1)[N+](=O)[O-])N2`, the TGI in experiment [8], in [9], in [1], in experiment [2], in experiment [3] and in experiment [10] was more than 100 µM each time. Besides, the TGI in experiment [11], in [4], in [5] and in [6] was more than 100 µM in each case.
With `NCCCNCCSSCc1ccccc1CSSCCNCCCN`, the TGI in [2], in experiment [3], in [10], in [4], in experiment [5] and in experiment [6] was more than 100 µM each time. In addition, the TGI in [7] was more than 100 µM.
As for `C=C1CC(OC(C)=O)/C=C(/C)CCC(C(C)(C)O)CC1O` (configuration not stated), the TGI in experiment [8], in experiment [9], in [1], in experiment [2], in [3] and in experiment [10] was more than 100 µM in each case. The TGI in [11], in [5] and in experiment [6] was more than 100 µM in each case.
As to `CCN(CC)CCN1C(=O)c2cccc3c(-c4ccc5c(c4)ncn5C4CCCCC4)ccc(c23)C1=O`, the GI50 in experiment [8] is 1.74 µM; in experiment [11] it was 1.65 µM; in experiment [4] it was 0.476 µM; in [5], 1.73 µM; in experiment [6], 1.52 µM; in experiment [7], 1.17 µM. For the same molecule, the TGI is 4.65 µM in experiment [8]; 6.22 µM in [11]; 3.97 µM in [4]; 3.64 µM in [5]; 3.2 µM in experiment [6]; 3.53 µM in [7].
In the case of `O=C1CCc2c3c(c4c([nH]c5ccccc54)c2CC1)C(=O)NC3=O`, the TGI is 81 µM in experiment [8]; more than 100 µM in [1]; 44.6 µM in [2]; 44.9 µM in experiment [3]; more than 100 µM in [10]; 6.01 µM in experiment [11]. In addition, the TGI in experiment [4] is more than 100 µM; in experiment [5], more than 100 µM; in experiment [6] it was 18.4 µM; in experiment [7], 64.1 µM.
Regarding `CSCCC(NC(=O)C(Cc1ccccc1)NC(=O)CNC(=O)CNC(=O)C(N)Cc1ccc(O)cc1)C(=O)O` (configuration not stated), the TGI in experiment [8], in [3], in experiment [10], in experiment [4], in [5] and in experiment [6] was more than 100 µM throughout.
Turning to `CSc1ccc2c(c1)c(CCN)c(C)n2Cc1ccc(Cl)c(Cl)c1`, the GI50 is 1.69 µM in experiment [2], 1.73 µM in experiment [10], 1.7 µM in experiment [5] and 2.14 µM in [7]. The TGI in experiment [2] was determined as 3.22 µM; in experiment [10], 3.3 µM; in [5], 3.15 µM; in [7], 4.66 µM.
Regarding `CC(/C=C/c1ncccc1OCCCCCC(=O)O)=N\NC1=NCCN1`, the TGI in [2], in experiment [3], in experiment [4], in experiment [5], in experiment [6] and in [7] was more than 100 µM in each case.
With `COCCO`, the TGI in [8], in [3], in experiment [10], in [4], in [5] and in [6] was more than 100 µM throughout. Moreover, in experiment [7], the TGI is more than 100 µM.
`CSC1=N/C(=C\c2cccs2)C(=O)N1CN1CCOCC1`: the TGI in [8], in experiment [9], in experiment [1], in experiment [2], in [10] and in experiment [4] was more than 100 µM in each case. The TGI in experiment [5], in experiment [6] and in [7] was more than 100 µM each time.
Take `Nc1[nH]c(=O)nc2sc3c(c12)CCCC3`: the TGI in experiment [8], in [1], in experiment [2], in experiment [3], in [10] and in experiment [11] was more than 100 µM throughout. In addition, the TGI in experiment [4], in experiment [6] and in [7] was more than 100 µM each time.
For the molecule `C#CCNC(=O)CCC(N)C(=O)O` (configuration not stated), the TGI in experiment [8], in experiment [3], in experiment [10], in [4], in experiment [5] and in experiment [6] was more than 100 µM throughout. Further, the TGI in experiment [7] was more than 100 µM.
For `COc1cc(N=C(N)N=C(N)N)c2ncccc2c1`, the TGI in [8], in [9], in [1], in experiment [2], in experiment [3] and in [10] was more than 100 µM in each case. The TGI in experiment [11], in experiment [5] and in [6] was more than 100 µM each time.
`NC(CCCCCP(=O)(O)O)C(=O)O` (configuration not stated): the TGI in experiment [9], in [2], in experiment [3], in experiment [10], in experiment [11] and in experiment [4] was more than 100 µM throughout. Also, the TGI in [5], in experiment [6] and in experiment [7] was more than 100 µM in each case.

Values taken from PubChem BioAssay (NCI).
